From the supplement of paper PMC10307832

How the values were obtained:
Assay in all cases: relative viability (nuclei count vs DMSO), 5 days (fraction); higher = more cells survive
NCI-H2228 = test system: NCI-H2228
Summary of the method: (§1)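 Dosing by pin tool came one day after lung cancer cell lines were seeded in 1536-well plates, using either one drug or a fixed anchor-drug dose plus five library-drug doses (not always all listed) in √10 steps. After 5 days, nuclei were counted on 4× images. Relative viability is treated-well nuclei count divided by vehicle-well nuclei count, and values are medians of duplicate plates.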

H3255 = test system: H3255
Summary of the method: as §1

PC-14 = test system: PC-14
Summary of the method: as §1

NCI-H520 = test system: NCI-H520
Summary of the method: as §1

COR-L23 = test system: COR-L23
Summary of the method: as §1

NCI-H1355 = test system: NCI-H1355
Summary of the method: as §1

NCI-H661 = test system: NCI-H661
Summary of the method: as §1

HCC-15 = test system: HCC-15
Summary of the method: as §1

NCI-H1734 = test system: NCI-H1734
Summary of the method: as §1

NCI-H2405 = test system: NCI-H2405
Summary of the method: as §1

CAL-12T = test system: CAL-12T
Summary of the method: as §1

EKVX = test system: EKVX
Summary of the method: as §1

SW 1573 = test system: SW 1573
Summary of the method: as §1

NCI-H1437 = test system: NCI-H1437
Summary of the method: as §1

RERF-LC-KJ = test system: RERF-LC-KJ
Summary of the method: as §1

HCC-827 = test system: HCC-827
Summary of the method: as §1

LK-2 = test system: LK-2
Summary of the method: as §1

PC-3 [JPC-3] = test system: PC-3 [JPC-3]
Summary of the method: as §1

NCI-H322M = test system: NCI-H322M
Summary of the method: as §1

NCI-H1563 = test system: NCI-H1563
Summary of the method: as §1

ABC-1 = test system: ABC-1
Summary of the method: as §1

Question: Which results are given for `CC1(C)CCC(c2ccc(Cl)cc2)=C(CN2CCN(c3ccc(C(=O)NS(=O)(=O)c4ccc(N[C@H](CCN5CCOCC5)CSc5ccccc5)c(S(=O)(=O)C(F)(F)F)c4)cc3)CC2)C1` [Navitoclax] + Cc1nc(NC(=O)N2CCC[C@H]2C(N)=O)sc1-c1ccnc(C(C)(C)C(F)(F)F)c1 [Alpelisib] (partner 2 µM)?
Answer: relative viability (NCI-H2228; first compound 0.005 µM): 0.745; relative viability (NCI-H2228; first compound 0.01581 µM): 0.725; relative viability (NCI-H2228; first compound 0.05 µM): 0.602; relative viability (NCI-H2228; first compound 0.1581 µM): 0.688; relative viability (NCI-H2228; first compound 0.5 µM): 0.819; relative viability (H3255; first compound 0.005 µM): 0.635; relative viability (H3255; first compound 0.01581 µM): 0.745; relative viability (H3255; first compound 0.05 µM): 0.6; relative viability (H3255; first compound 0.1581 µM): 0.744; relative viability (H3255; first compound 0.5 µM): 0.732; relative viability (PC-14; first compound 0.005 µM): 0.833; relative viability (PC-14; first compound 0.01581 µM): 1.02; relative viability (PC-14; first compound 0.05 µM): 0.92; relative viability (PC-14; first compound 0.1581 µM): 0.926; relative viability (PC-14; first compound 0.5 µM): 0.904; relative viability (NCI-H520; first compound 0.005 µM): 0.915; relative viability (NCI-H520; first compound 0.01581 µM): 0.892; relative viability (NCI-H520; first compound 0.05 µM): 0.981; relative viability (NCI-H520; first compound 0.1581 µM): 0.892; relative viability (NCI-H520; first compound 0.5 µM): 0.982; relative viability (COR-L23; first compound 0.005 µM): 0.67; relative viability (COR-L23; first compound 0.01581 µM): 0.807; relative viability (COR-L23; first compound 0.05 µM): 0.697; relative viability (COR-L23; first compound 0.1581 µM): 0.7; relative viability (COR-L23; first compound 0.5 µM): 0.855; relative viability (NCI-H1355; first compound 0.005 µM): 0.833; relative viability (NCI-H1355; first compound 0.01581 µM): 0.934; relative viability (NCI-H1355; first compound 0.05 µM): 0.846; relative viability (NCI-H1355; first compound 0.1581 µM): 0.74; relative viability (NCI-H1355; first compound 0.5 µM): 0.782; relative viability (NCI-H661; first compound 0.005 µM): 0.438; relative viability (NCI-H661; first compound 0.01581 µM): 0.468; relative viability (NCI-H661; first compound 0.05 µM): 0.479; relative viability (NCI-H661; first compound 0.1581 µM): 0.465; relative viability (NCI-H661; first compound 0.5 µM): 0.673; relative viability (HCC-15; first compound 0.005 µM): 0.879; relative viability (HCC-15; first compound 0.01581 µM): 0.957; relative viability (HCC-15; first compound 0.05 µM): 0.88; relative viability (HCC-15; first compound 0.1581 µM): 0.882; relative viability (HCC-15; first compound 0.5 µM): 0.764; relative viability (NCI-H1734; first compound 0.005 µM): 0.618; relative viability (NCI-H1734; first compound 0.01581 µM): 0.779; relative viability (NCI-H1734; first compound 0.1581 µM): 0.645; relative viability (NCI-H1734; first compound 0.5 µM): 0.63; relative viability (NCI-H2405; first compound 0.005 µM): 0.762; relative viability (NCI-H2405; first compound 0.01581 µM): 0.896; relative viability (NCI-H2405; first compound 0.05 µM): 0.954; relative viability (NCI-H2405; first compound 0.1581 µM): 0.83; relative viability (NCI-H2405; first compound 0.5 µM): 0.834; relative viability (CAL-12T; first compound 0.005 µM): 1.08; relative viability (CAL-12T; first compound 0.01581 µM): 1.28; relative viability (CAL-12T; first compound 0.05 µM): 1.31; relative viability (CAL-12T; first compound 0.1581 µM): 1.25; relative viability (CAL-12T; first compound 0.5 µM): 1.11; relative viability (EKVX; first compound 0.005 µM): 0.828; relative viability (EKVX; first compound 0.01581 µM): 1.15; relative viability (EKVX; first compound 0.05 µM): 0.765; relative viability (EKVX; first compound 0.1581 µM): 0.928; relative viability (EKVX; first compound 0.5 µM): 0.833; relative viability (SW 1573; first compound 0.005 µM): 0.635; relative viability (SW 1573; first compound 0.01581 µM): 0.836; relative viability (SW 1573; first compound 0.05 µM): 0.917; relative viability (SW 1573; first compound 0.1581 µM): 0.796; relative viability (SW 1573; first compound 0.5 µM): 0.718; relative viability (NCI-H1437; first compound 0.005 µM): 0.885; relative viability (NCI-H1437; first compound 0.01581 µM): 1.04; relative viability (NCI-H1437; first compound 0.05 µM): 0.98; relative viability (NCI-H1437; first compound 0.1581 µM): 1.05; relative viability (NCI-H1437; first compound 0.5 µM): 0.871; relative viability (RERF-LC-KJ; first compound 0.005 µM): 0.794; relative viability (RERF-LC-KJ; first compound 0.01581 µM): 0.839; relative viability (RERF-LC-KJ; first compound 0.05 µM): 0.765; relative viability (RERF-LC-KJ; first compound 0.1581 µM): 0.75; relative viability (RERF-LC-KJ; first compound 0.5 µM): 0.793; relative viability (HCC-827; first compound 0.005 µM): 1.07; relative viability (HCC-827; first compound 0.01581 µM): 1.1; relative viability (HCC-827; first compound 0.05 µM): 0.766; relative viability (HCC-827; first compound 0.1581 µM): 1.02; relative viability (HCC-827; first compound 0.5 µM): 1.01; relative viability (LK-2; first compound 0.005 µM): 0.919; relative viability (LK-2; first compound 0.01581 µM): 1.29; relative viability (LK-2; first compound 0.05 µM): 1.12; relative viability (LK-2; first compound 0.1581 µM): 0.997; relative viability (LK-2; first compound 0.5 µM): 1.08; relative viability (PC-3 [JPC-3]; first compound 0.005 µM): 1.04; relative viability (PC-3 [JPC-3]; first compound 0.01581 µM): 1.02; relative viability (PC-3 [JPC-3]; first compound 0.05 µM): 1.02; relative viability (PC-3 [JPC-3]; first compound 0.1581 µM): 1.03; relative viability (PC-3 [JPC-3]; first compound 0.5 µM): 1.06; relative viability (NCI-H322M; first compound 0.005 µM): 0.644; relative viability (NCI-H322M; first compound 0.01581 µM): 0.772; relative viability (NCI-H322M; first compound 0.05 µM): 0.931; relative viability (NCI-H322M; first compound 0.1581 µM): 0.791; relative viability (NCI-H322M; first compound 0.5 µM): 0.591; relative viability (NCI-H1563; first compound 0.005 µM): 0.947; relative viability (NCI-H1563; first compound 0.01581 µM): 1.03; relative viability (NCI-H1563; first compound 0.05 µM): 0.989; relative viability (NCI-H1563; first compound 0.1581 µM): 0.981; relative viability (NCI-H1563; first compound 0.5 µM): 1.13; relative viability (ABC-1; first compound 0.005 µM): 1.14; relative viability (ABC-1; first compound 0.01581 µM): 1.39; relative viability (ABC-1; first compound 0.05 µM): 1.04; relative viability (ABC-1; first compound 0.1581 µM): 0.899; relative viability (ABC-1; first compound 0.5 µM): 1.01
